Data as given in patent US9255090B2, “Heterocyclyl derivatives and their use as prostaglandin D2 receptor modulators” (Actelion Pharmaceuticals Ltd., priority 2012, dated 2016).

What was measured:
eosinophils = assay: Eosinophil shape change assay with human plasma; type: cell-based; conditions: Homo sapiens, Eosinophil, human plasma (50%), PGD2 100 nM activation, antagonistic activity
Description: Eosinophil Shape Change Assay with Human Plasma
After obtaining informed consent, blood samples were drawn by venipuncture according to the protocol approved by the ethics committee of Basel, Switzerland. Polymorphonuclear leukocytes (containing eosinophils, basophils and neutrophils) were isolated using the Polymorphprep™ method (Axis-Shield). […] The polymorphonuclear cell fraction was harvested and depleted for erythrocytes by hypotonic saline lysis.
The polymorphonuclear cells were resuspended in assay buffer (1×PBS with Ca^2+/Mg^2+ supplemented with 0.1% BSA, 10 mM HEPES, and 10 mM Glucose, pH 7.4) at 5×10^6 cells/ml and stained with anti-CD49d-APC ((APC=Allophycocyanin) for 1 hour at RT. Test compounds, at various concentrations, were preincubated 10 min in human plasma (anticoagulated with a thrombin inhibitor). Then, human plasma was added to the polymorphonuclear cells to 50% of final assay volume with polymorphonuclear cells at 4×10^6 cells/ml. After incubation for 10 minutes at 37° C., the polymorphonuclear cells were activated for 5 min at 37° C. by addition of PGD2 at 100 nM final concentration. Activation was stopped by addition of 0.5 ml paraformaldehyde (1%).
Immediately after fixation with paraformaldehyde, the samples were analyzed by FACSCanto flow cytometer (BD Biosciences) and target cells were identified by their forward-scatter (FSC) and side-scatter (SSC) characteristics. Eosinophils were identified by the anti-CD49d-APC signal and their characteristic side-scatter (SSC) profile. Shape change responses, indicative of eosinophil activation, were quantified as the percent of cells with an increased forward-scatter.

hCRTH2 receptor = hCRTH2 receptor (Homo sapiens (Human), UniProt Q9Y5Y4); assay: hCRTH2 receptor membranes radioligand (3H-PGD2) displacement assay; type: binding; conditions: 3H-PGD2 radioligand displacement, HEK293-hCRTH2 membranes
Method in brief: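 HEK293-hCRTH2 membranes, 20 μg/well; 3H-PGD2 added at 2.5 nM; binding buffer 50 mM Tris, 10 mM MnCl2, 1 mM EDTA, pH 7.0; 90 min RT; GF/C filtration, scintillation count. Nonspecific binding: PGD2 at […].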

Chain of hCRTH2 receptor (Q9Y5Y4 whole entry): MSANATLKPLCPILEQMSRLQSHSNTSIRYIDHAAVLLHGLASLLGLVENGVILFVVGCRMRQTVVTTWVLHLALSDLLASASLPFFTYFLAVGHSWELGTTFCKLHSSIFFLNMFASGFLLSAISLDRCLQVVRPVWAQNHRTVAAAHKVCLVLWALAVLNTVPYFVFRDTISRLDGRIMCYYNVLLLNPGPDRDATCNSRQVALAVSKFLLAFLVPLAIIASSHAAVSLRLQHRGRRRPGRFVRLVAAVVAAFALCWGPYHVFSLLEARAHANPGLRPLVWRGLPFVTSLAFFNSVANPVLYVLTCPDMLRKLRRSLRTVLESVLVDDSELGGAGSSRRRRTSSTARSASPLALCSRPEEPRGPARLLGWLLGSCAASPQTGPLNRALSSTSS

| IC50 (eosinophils) | IC50 (hCRTH2 receptor) | Structure (SMILES) |
| --- | --- | --- |
| 26 nM | 0.9 nM | CCOc1ccc(CC(=O)O)cc1-c1ccc(F)c2c1CN(C(=O)CC1CCOc3cc(F)ccc31)CC2 (racemic) [Example 335] |
| 51 nM | 0.9 nM | CCOc1cc(CC(=O)O)ccc1-c1ccc(F)c2c1CN(C(=O)CC(C)c1ccccn1)CC2 (racemic) [Example 344] |
| 31 nM | 4.8 nM | CCOc1ccc(CC(=O)O)cc1-c1ccc(F)c2c1CN(C(=O)CC(C)c1ccccn1)CC2 (racemic) [Example 345] |
| 9 nM | 8.2 nM | CCOc1ccc(CC(=O)O)cc1-c1ccc(F)c2c1CN(C(=O)CC1CCCc3cccnc31)CC2 (racemic) [Example 350] |
| 26 nM | 3.1 nM | CCOc1ccc(CC(=O)O)cc1-c1ccc(F)c2c1CN(C(=O)C(C)Cc1ccccn1)CC2 (racemic) [Example 351] |
| 103 nM | 8.1 nM | CCOc1cc(CC(=O)O)ccc1-c1ccc(F)c2c1CN(C(=O)C(C)Cc1ccccn1)CC2 (racemic) [Example 352] |
| 30 nM | 6.1 nM | COc1cc(CC(=O)O)ccc1-c1ccc(F)c2c1CN(C(=O)CC1CCc3ccccc31)CC2 (racemic) [Example 360] |
| 64 nM | 2.19 nM | O=C(O)Cc1ccc(OC(F)(F)F)c(-c2ccc(F)c3c2CN(C(=O)OCc2ccccc2)CC3)c1 [Example 21, 8-(5-Carboxymethyl-2-trifluoromethoxy-phenyl)-5-fluoro-3,4-dihydro-1H-isoquinoline-2-carboxylic acid benzyl ester] |
| 38 nM | 4.72 nM | CC(C)Oc1ccc(CC(=O)O)cc1-c1ccc(F)c2c1CN(C(=O)OCc1ccccc1)CC2 [Example 22, 8-(5-Carboxymethyl-2-isopropoxy-phenyl)-5-fluoro-3,4-dihydro-1H-isoquinoline-2-carboxylic acid benzyl ester] |
| 42 nM | 10 nM | O=C(O)Cc1ccc(Cl)c(-c2ccc(F)c3c2CN(C(=O)[C@@H]2C[C@H]2c2ccccc2)CC3)c1 [Example 28, {4-Chloro-3-[5-fluoro-2-((1R,2R)-2-phenyl-cyclopropanecarbonyl)-1,2,3,4-tetrahydro-isoquinolin-8-yl]-phenyl}-acetic acid] |
| 20 nM | 6.6 nM | CS(=O)(=O)c1ccc(CC(=O)O)cc1-c1ccc(F)c2c1CN(C(=O)[C@@H]1C[C@H]1c1ccccc1)CC2 [Example 29, {3-[5-Fluoro-2-((1R,2R)-2-phenyl-cyclopropanecarbonyl)-1,2,3,4-tetrahydro-isoquinolin-8-yl]-4-methanesulfonyl-phenyl}-acetic acid] |
| 436 nM | 12 nM | COc1ccc(CC(=O)O)cc1-c1cc(F)c(F)c2c1CN(C(=O)OCc1ccccc1)CC2 [Example 31, 8-(5-Carboxymethyl-2-methoxy-phenyl)-5,6-difluoro-3,4-dihydro-1H-isoquinoline-2-carboxylic acid benzyl ester] |
| 356 nM | 10.5 nM | COc1ccc(CC(=O)O)cc1-c1cc(F)cc2c1CN(C(=O)OCc1ccccc1)CC2 [Example 32, 8-(5-Carboxymethyl-2-methoxy-phenyl)-6-fluoro-3,4-dihydro-1H-isoquinoline-2-carboxylic acid benzyl ester] |
| 25 nM | 2.7 nM | COc1ccc(CC(=O)O)cc1-c1cc(F)cc2c1CN(C(=O)[C@@H]1C[C@H]1c1ccccc1)CC2 [Example 34, {3-[6-Fluoro-2-((1R,2R)-2-phenyl-cyclopropanecarbonyl)-1,2,3,4-tetrahydro-isoquinolin-8-yl]-4-methoxy-phenyl}-acetic acid] |
| 404 nM | 5.89 nM | COc1ccc(CC(=O)O)cc1-c1c(F)cc(F)c2c1CN(C(=O)OCc1ccccc1)CC2 [Example 39, 8-(5-Carboxymethyl-2-methoxy-phenyl)-5,7-difluoro-3,4-dihydro-1H-isoquinoline-2-carboxylic acid benzyl ester] |
| 118 nM | 8.76 nM | COc1ccc(CC(=O)O)cc1-c1ccc(F)c2c1CN(C(=O)CCOc1ccc(F)cc1)CC2 [Example 42, (3-{5-Fluoro-2-[3-(4-fluoro-phenoxy)-propionyl]-1,2,3,4-tetrahydro-isoquinolin-8-yl}-4-methoxy-phenyl)-acetic acid] |
| 64 nM | 2.9 nM | COc1ccc(CC(=O)O)cc1-c1ccc(F)c2c1CN(C(=O)CCCc1ccccc1F)CC2 [Example 45, (3-{5-Fluoro-2-[4-(2-fluoro-phenyl)-butyryl]-1,2,3,4-tetrahydro-isoquinolin-8-yl}-4-methoxy-phenyl)-acetic acid] |
| 184 nM | 5.83 nM | COc1ccc(CC(=O)O)cc1-c1ccc(F)c2c1CN(C(=O)CCc1ccccc1)CC2 [Example 54, {3-[5-Fluoro-2-(3-phenyl-propionyl)-1,2,3,4-tetrahydro-isoquinolin-8-yl]-4-methoxy-phenyl}-acetic acid] |
| 122 nM | 3.57 nM | COc1ccc(CC(=O)O)cc1-c1ccc(F)c2c1CN(C(=O)COCc1ccccc1Cl)CC2 [Example 58, (3-{2-[2-(2-Chloro-benzyloxy)-acetyl]-5-fluoro-1,2,3,4-tetrahydro-isoquinolin-8-yl}-4-methoxy-phenyl)-acetic acid] |
| 182 nM | 7.4 nM | COc1ccc(CC(=O)O)cc1-c1ccc(F)c2c1CN(C(=O)CCN1CCc3ccccc31)CC2 [Example 59, {3-[2-(3-2,3-Dihydro-indol-1-yl-propionyl)-5-fluoro-1,2,3,4-tetrahydro-isoquinolin-8-yl]-4-methoxy-phenyl}-acetic acid] |
| 52 nM | 8 nM | COc1ccc(CC(=O)O)cc1-c1ccc(F)c2c1CN(C(=O)CCc1c(C)[nH]c3ccccc13)CC2 [Example 61, (3-{5-Fluoro-2-[3-(2-methyl-1H-indol-3-yl)-propionyl]-1,2,3,4-tetrahydro-isoquinolin-8-yl}-4-methoxy-phenyl)-acetic acid] |
| 106 nM | 4.74 nM | COc1ccc(CC(=O)O)cc1-c1ccc(F)c2c1CN(C(=O)CCc1cn(C)c3ccccc13)CC2 [Example 62, (3-{5-Fluoro-2-[3-(1-methyl-1H-indol-3-yl)-propionyl]-1,2,3,4-tetrahydro-isoquinolin-8-yl}-4-methoxy-phenyl)-acetic acid] |
| 78 nM | 9.58 nM | COc1ccc(CC(=O)O)cc1-c1ccc(Cl)c2c1CN(C(=O)[C@@H]1C[C@H]1c1cccc(F)c1)CC2 [Example 69, (3-{5-Chloro-2-[(1R,2R)-2-(3-fluoro-phenyl)-cyclopropanecarbonyl]-1,2,3,4-tetrahydro-isoquinolin-8-yl}-4-methoxy-phenyl)-acetic acid] |
| 22 nM | 1.68 nM | COc1ccc(CC(=O)O)cc1-c1ccc(Cl)c2c1CN(C(=O)[C@@H]1C[C@H]1c1ccccc1)CC2 [Example 71, {3-[5-Chloro-2-((1R,2R)-2-phenyl-cyclopropanecarbonyl)-1,2,3,4-tetrahydro-isoquinolin-8-yl]-4-methoxy-phenyl}-acetic acid] |
| 4.7 nM | 1.89 nM | COc1ccc(CC(=O)O)cc1-c1ccc(F)c2c1CN(C(=O)[C@@H]1C[C@H]1c1ccccc1)CC2 [Example 80, {3-[5-Fluoro-2-((1R,2R)-2-phenyl-cyclopropanecarbonyl)-1,2,3,4-tetrahydro-isoquinolin-8-yl]-4-methoxy-phenyl}-acetic acid] |
| 5 nM | 4.82 nM | COc1ccc(CC(=O)O)cc1-c1cc(F)c(F)c2c1CN(C(=O)[C@@H]1C[C@H]1c1ccccc1)CC2 [Example 84, {3-[5,6-Difluoro-2-((1R,2R)-2-phenyl-cyclopropanecarbonyl)-1,2,3,4-tetrahydro-isoquinolin-8-yl]-4-methoxy-phenyl}-acetic acid] |
| 37 nM | 10.4 nM | COc1ccc(CC(=O)O)cc1-c1ccc(F)c2c1CN(C(=O)C[C@@H](C)c1ccccc1)CC2 [Example 106, {3-[5-Fluoro-2-((R)-3-phenyl-butyryl)-1,2,3,4-tetrahydro-isoquinolin-8-yl]-4-methoxy-phenyl}-acetic acid] |
| 92 nM | 10.1 nM | COc1ccc(CC(=O)O)cc1-c1ccc(F)c2c1CN(C(=O)CC(C)(C)c1ccccc1)CC2 [Example 108, {3-[5-Fluoro-2-(3-methyl-3-phenyl-butyryl)-1,2,3,4-tetrahydro-isoquinolin-8-yl]-4-methoxy-phenyl}-acetic acid] |
| 113 nM | 16.3 nM | COc1ccc(CC(=O)O)cc1-c1ccc(F)c2c1CN(C(=O)CCn1nc(C)c3ccccc31)CC2 [Example 125, (3-{5-Fluoro-2-[3-(3-methyl-indazol-1-yl)-propionyl]-1,2,3,4-tetrahydro-isoquinolin-8-yl}-4-methoxy-phenyl)-acetic acid] |
